This passage reports IC50 results from patent publication US20250257064A1, “TRIFLUOROMETHYL-SUBSTITUTED SULFONAMIDE AS BCL-2-SELECTIVE INHIBITOR” (Chia Tai Tianqing Pharmaceutical Group Co., Ltd., priority 2018, published 2025).

One assay has as its system RS4;11 cells. Description: Inhibitory effect on proliferation of RS4;11 cells (CCK-8). Particulars: Homo sapiens, RS4-11, 72 h. The class given is cell-based, human. The method, then: Experimental Example 2: Inhibitory Effect of Compounds on Proliferation of RS4;11 Cells
RS4;11 cells (from Nanjing Cobioer) in logarithmic growth phase and good cell condition were added to a centrifuge tube and centrifuged at 1500 rpm for 3 min in a low speed centrifuge. The supernatant was discarded, and 5 mL of complete medium (RPMI basic medium+10 wt % fetal bovine serum (FBS)) was added using a pipette for cell resuspension. The cells were counted using a cell counter, diluted with complete medium to a cell density of 2×10^5 cells/mL, and added with an equivalent amount of RPMI basic medium to adjust the serum concentration to 5% and the cell density to 1×10^5 cells/mL for plate seeding. The cells were seeded on a 96-well plate at 100 μL/well using a pipettor, and incubated in an incubator at 37° C., 5% CO2 with saturated humidity. After 24 h of incubation, compounds were loaded using a nanoliter pipettor, 2 duplicate wells were set for each concentration, and cells without compound were used as negative controls. […] Inhibition rate (%)=(mean value of negative control group—mean value of experimental group)/(mean value of negative control group—mean value of blank group)×100%. A dose-response curve was fitted by four-parameter analysis, with the logarithm of compound concentration serving as abscissa and inhibition rate serving as ordinate, so that IC50 was calculated (FIG. 2).

Another assay addresses T1, BCL-2/BAK (Homo sapiens, UniProt P10415).
T1 construct: purchased Cisbio
Description: Screening on inhibitory activity for BCL-2/BAK binding (Cisbio HTRF kit). The method, then:
1.1 Screening on Inhibitory Activity for BCL-2/BAK Binding
500 nM Tag1-BCL-2 protein stock solution and 20 μM Tag2-BAK protein stock solution were diluted to 5 nM and 120 nM respectively with dilution buffer in kit (model: BCL-2/BAK (BH3) BINDING ASSAY KITS, from Cisbio). 5 μL of Tag1-BCL-2 protein diluent was added to each well, then different compounds dissolved with DMSO were added to the wells with a nanoliter pipettor, allowing the final compound concentrations to be 200 nM to 0.0488 nM (4-fold gradient for 7 concentrations in total). Blank control wells (without enzyme) and negative control wells (with enzyme, plus vehicle DMSO) were set, and 2 replicate wells were set. Finally, 5 μL of Tag2-BAK protein diluent was added to each well, and the mixture was mixed well by centrifugation and incubated at 25° C. for 15 min. 100× anti-Tag1-Eu^3+ and 100× anti-Tag2-XL665 were both diluted to 1× working concentration with the detection buffer in the kit. Anti-Tag1-Eu^3+ and anti-Tag2-XL665 were mixed well in a 1:1 ratio, and the mixture was added to wells at 5 μL/well, and incubated at 25° C. for 2 h or more. The plate was read using a PE Envision multi-functional microplate reader (excitation: […], emission: 665 nm) and IC50 (shown in table 1) was calculated by four-parameter fitting.

A further assay deals with T2, BCL-XL/BAK (Homo sapiens, UniProt Q07817).
T2 construct: purchased Cisbio
Description: Screening on inhibitory activity for BCL-XL/BAK binding (Cisbio HTRF kit). The procedure:
1.2 Screening on Inhibitory Activity for BCL-XL/BAK Binding
300 nM Tag1-BCL-XL protein stock solution and 10 μM Tag2-BAK protein stock solution were diluted to 2 nM and 80 nM respectively with dilution buffer in kit (model: BCL-XL/BAK (BH3) BINDING ASSAY KITS, from Cisbio). 5 μL of Tag1-BCL-XL protein diluent was added to each well, then different compounds dissolved with DMSO were added to the wells with a nanoliter pipettor, allowing the final compound concentrations to be 2000 nM to 0.488 nM (4-fold gradient for 7 concentrations in total). Blank control wells (without enzyme) and negative control wells (with enzyme, plus vehicle DMSO) were set, and 2 replicate wells were set. Finally, 5 μL of Tag2-BAK protein diluent was added to each well, and the mixture was mixed well by centrifugation and incubated at 25° C. for 15 min. 100× anti-Tag1-Eu^3+ and 100× anti-Tag2-XL665 were both diluted to 1× working concentration with the detection buffer in the kit. Anti-Tag1-Eu^3+ and anti-Tag2-XL665 were mixed well in a 1:1 ratio, and the mixture was added to wells at 5 µL/well, and incubated at 25° C. for 2 h or more. The plate was read using a PE Envision multi-functional microplate reader (excitation: […], emission: 665 nm) and IC50 (shown in table 1) was calculated by four-parameter fitting.

Structures are written as SMILES.

T1 sequence (P10415 whole entry, species assumed): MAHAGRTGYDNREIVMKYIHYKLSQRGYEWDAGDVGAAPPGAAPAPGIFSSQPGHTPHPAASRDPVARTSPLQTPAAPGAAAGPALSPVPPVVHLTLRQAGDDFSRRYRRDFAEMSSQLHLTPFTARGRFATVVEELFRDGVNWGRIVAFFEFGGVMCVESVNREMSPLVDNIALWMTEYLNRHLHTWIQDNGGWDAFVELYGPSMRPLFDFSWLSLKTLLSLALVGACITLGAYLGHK
T2 sequence (Q07817 whole entry, species assumed): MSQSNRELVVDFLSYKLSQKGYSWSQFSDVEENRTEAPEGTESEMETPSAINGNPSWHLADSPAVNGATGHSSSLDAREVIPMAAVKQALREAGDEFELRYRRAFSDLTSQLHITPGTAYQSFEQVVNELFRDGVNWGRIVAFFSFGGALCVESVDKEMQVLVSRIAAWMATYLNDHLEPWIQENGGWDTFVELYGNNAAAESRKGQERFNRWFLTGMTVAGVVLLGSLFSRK

As for `CC1(C)CCC(CN2CCN(c3ccc(C(=O)NS(=O)(=O)c4ccc(NC[C@@H]5CN(S(C)(=O)=O)CCO5)c([N+](=O)[O-])c4)c(Oc4cnc5[nH]ccc5c4)c3)CC2)=C(c2ccc(C(F)(F)F)cc2Cl)C1` [Compound 67-1, (R)-4-(4-{[2-(2-chloro-4-trifluoromethylphenyl)-4,4-dimethylcyclohex-1-enyl]methyl}-piperazin-1-yl)-N-({3-nitro-4-[(((4-(methylsulfonyl)morpholin)-2-yl)methyl)amino]phenyl}sulfonyl)-2-(1H-pyrrolo[2,3-b]pyridin-5-yloxy)-benzamide], the concentration for half-maximal inhibition (IC50) (in general, the midpoint of a concentration-inhibition curve) in the assay with RS4;11 cells came out at 0.8 nM; on BCL-2/BAK, 0.6 nM; on BCL-XL/BAK, 199 nM.
`CC(C)C(=O)N1CCO[C@@H](CNc2ccc(S(=O)(=O)NC(=O)c3ccc(N4CCN(CC5=C(c6ccc(C(F)(F)F)cc6Cl)CC(C)(C)CC5)CC4)cc3Oc3cnc4[nH]ccc4c3)cc2[N+](=O)[O-])C1` [Compound 62-1, (S)-4-(4-{[2-(2-chloro-4-trifluoromethylphenyl)-4,4-dimethylcyclohex-1-enyl]methyl}-piperazin-1-yl)-N-({3-nitro-4-[((4-isobutyrylmorpholin-2-yl)methyl)amino]phenyl}sulfonyl)-2-(1H-pyrrolo[2,3-b]pyridin-5-yloxy)-benzamide]: the IC50 in the assay on RS4;11 cells is 4.1 nM; at BCL-2/BAK, 2.35 nM; at BCL-XL/BAK, 145 nM.
For `CC1(C)CCC(CN2CCN(c3ccc(C(=O)NS(=O)(=O)c4ccc(NCC5CCCCO5)c([N+](=O)[O-])c4)c(Oc4cnc5[nH]ccc5c4)c3)CC2)=C(c2ccc(C(F)(F)F)cc2Cl)C1` (stereo not drawn) [Compound 14-1, 4-(4-{[2-(2-chloro-4-trifluoromethylphenyl)-4,4-dimethylcyclohex-1-enyl]methyl}-piperazin-1-yl)-N-({3-nitro-4-[(4-tetrahydro-2H-pyran-2-ylmethyl)amino]phenyl}sulfonyl)-2-(1H-pyrrolo[2,3-b]pyridin-5-yloxy)-benzamide], the IC50 turned out to be 8.6 nM with RS4;11 cells, 5.1 nM at BCL-2/BAK and 338 nM at BCL-XL/BAK.
With `CC(=O)N1CCOC(CCNc2ccc(S(=O)(=O)NC(=O)c3ccc(N4CCN(CC5=C(c6ccc(C(F)(F)F)cc6Cl)CC(C)(C)CC5)CC4)cc3Oc3cnc4[nH]ccc4c3)cc2[N+](=O)[O-])C1` (stereo not drawn) [Compound 16-1, 4-(4-{[2-(2-chloro-4-trifluoromethylphenyl)-4,4-dimethylcyclohex-1-enyl]methyl}-piperazin-1-yl)-N-({3-nitro-4-[(2-(4-acetylmorpholin-2-yl)ethyl)amino]phenyl}sulfonyl)-2-(1H-pyrrolo[2,3-b]pyridin-5-yloxy)-benzamide], the IC50 in the assay on RS4;11 cells turned out to be 7.8 nM; on BCL-2/BAK, 3.09 nM; on BCL-XL/BAK, 653 nM.
For `CC1(C)CCC(CN2CCN(c3ccc(C(=O)NS(=O)(=O)c4ccc(NCC5CN(C(=O)C(C)(C)C)CCO5)c([N+](=O)[O-])c4)c(Oc4cnc5[nH]ccc5c4)c3)CC2)=C(c2ccc(C(F)(F)F)cc2Cl)C1` (stereo not drawn) [Compound 50-1, 4-(4-{[2-(2-chloro-4-trifluoromethylphenyl)-4,4-dimethylcyclohex-1-enyl]methyl}-piperazin-1-yl)-N-({3-nitro-4-[((4-pivaloylmorpholin-2-yl)methyl)amino]phenyl}sulfonyl)-2-(1H-pyrrolo[2,3-b]pyridin-5-yloxy)-benzamide], the IC50 in the assay with RS4;11 cells is 4.3 nM; on BCL-2/BAK, 2.59 nM; on BCL-XL/BAK it was 211 nM.
Turning to `COCC(=O)N1CCC(CNc2ccc(S(=O)(=O)NC(=O)c3ccc(N4CCN(CC5=C(c6ccc(C(F)(F)F)cc6Cl)CC(C)(C)CC5)CC4)cc3Oc3cnc4[nH]ccc4c3)cc2[N+](=O)[O-])CC1` [Compound 73-1, 4-(4-{[2-(2-chloro-4-trifluoromethylphenyl)-4,4-dimethylcyclohex-1-enyl]methyl}-piperazin-1-yl)-N-({3-nitro-4-[((1-(2-methoxyacetyl)piperidin-4-yl)methyl)amino]phenyl}sulfonyl)-2-(1H-pyrrolo[2,3-b]pyridin-5-yloxy)-benzamide], the IC50 in the assay on RS4;11 cells came to 1.5 nM; at BCL-2/BAK it was 1.6 nM; on BCL-XL/BAK it was 204 nM.
In the case of `CC1(C)CCC(CN2CCN(c3ccc(C(=O)NS(=O)(=O)c4ccc(NC[C@H]5CCOC5)c([N+](=O)[O-])c4)c(Oc4cnc5[nH]ccc5c4)c3)CC2)=C(c2ccc(C(F)(F)F)cc2Cl)C1` [Compound 35-1, (R)-4-(4-{[2-(2-chloro-4-trifluoromethylphenyl)-4,4-dimethylcyclohex-1-enyl]methyl}-piperazin-1-yl)-N-({3-nitro-4-[((tetrahydrofuran-3-yl)methyl)amino]phenyl}sulfonyl)-2-(1H-pyrrolo[2,3-b]pyridin-5-yloxy)-benzamide], the IC50 with RS4;11 cells was determined as 9.6 nM; on BCL-2/BAK, 1.61 nM; on BCL-XL/BAK, 232 nM.
Take `CC1(C)CCC(CN2CCN(c3ccc(C(=O)NS(=O)(=O)c4ccc(NCC5CCCOC5)c([N+](=O)[O-])c4)c(Oc4cnc5[nH]ccc5c4)c3)CC2)=C(c2ccc(C(F)(F)F)cc2Cl)C1` (stereo not drawn) [Compound 13-1, 4-(4-{[2-(2-chloro-4-trifluoromethylphenyl)-4,4-dimethylcyclohex-1-enyl]methyl}-piperazin-1-yl)-N-({3-nitro-4-[(tetrahydro-2H-pyran-3-ylmethyl)amino]phenyl}sulfonyl)-2-(1H-pyrrolo[2,3-b]pyridin-5-yloxy)-benzamide]: the IC50 in the assay on RS4;11 cells is 8.1 nM; on BCL-2/BAK, 3.6 nM; at BCL-XL/BAK it was 387 nM.
On to `CC1(C)CCC(CN2CCN(c3ccc(C(=O)NS(=O)(=O)c4ccc(NC[C@H]5CCCO5)c([N+](=O)[O-])c4)c(Oc4cnc5[nH]ccc5c4)c3)CC2)=C(c2ccc(C(F)(F)F)cc2Cl)C1` [Compound 38-1, (R)-4-(4-{[2-(2-chloro-4-trifluoromethylphenyl)-4,4-dimethylcyclohex-1-enyl]methyl}-piperazin-1-yl)-N-({3-nitro-4-[((tetrahydrofuran-2-yl)methyl)amino]phenyl}sulfonyl)-2-(1H-pyrrolo[2,3-b]pyridin-5-yloxy)-benzamide], for which the IC50 came out at 6.6 nM in the assay with RS4;11 cells, 2.81 nM at BCL-2/BAK and 187 nM on BCL-XL/BAK.
